Key:
Assay in all cases: Test C pre-/postemergence greenhouse herbicide test
Assay type in all cases: in vivo
[1] = system: blackgrass (Alopecurus myosuroides); conditions: Preemergence; for pest or weed control at 31 g/ha: 31 g ai/ha; for pest or weed control at 62 g/ha: 62 g ai/ha; for Plant response rating, Blackgrass: visual rating on scale 0 (no effect) to 100 (complete control), 13 to 15 d
Method in brief: (§1)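 Visual ratings, 0 = no effect, 100 = complete control, vs untreated controls at 13–15 d. Pre: seeds in loam/sand. Post: 2–18 cm plants (1–4 leaf), peat/vermiculite mix. Surfactant-containing solvent formulation; greenhouse.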

corn (Zea mays) = conditions: Preemergence; for Plant response rating, Corn: visual rating on scale 0 (no effect) to 100 (complete control), 13 to 15 d; for plant injury at 31 g/ha: 31 g ai/ha; for plant injury at 62 g/ha: 62 g ai/ha
Method in brief: as §1

[2] = system: foxtail, giant (giant foxtail, Setaria faberii); conditions: Preemergence; for Plant response rating, Foxtail, Giant: visual rating on scale 0 (no effect) to 100 (complete control), 13 to 15 d; for pest or weed control at 31 g/ha: 31 g ai/ha; for pest or weed control at 62 g/ha: 62 g ai/ha
Method in brief: as §1

[3] = system: galium (catchweed bedstraw, Galium aparine); conditions: Preemergence; for Plant response rating, Galium: visual rating on scale 0 (no effect) to 100 (complete control), 13 to 15 d; for pest or weed control at 31 g/ha: 31 g ai/ha; for pest or weed control at 62 g/ha: 62 g ai/ha
Method in brief: as §1

[4] = system: morningglory (Ipomoea coccinea); conditions: Preemergence; for Plant response rating: Morningglory; for Plant response rating, Morningglory: visual rating on scale 0 (no effect) to 100 (complete control), 13 to 15 d
Method in brief: as §1

[5] = system: nutsedge, yellow (yellow nutsedge, Cyperus esculentus); conditions: Preemergence; for pest or weed control at 31 g/ha: 31 g ai/ha; for pest or weed control at 62 g/ha: 62 g ai/ha; for Plant response rating, Nutsedge, Yellow: visual rating on scale 0 (no effect) to 100 (complete control), 13 to 15 d
Method in brief: as §1

[6] = system: ryegrass, Italian (Italian ryegrass, Lolium multiflorum); conditions: Preemergence; for pest or weed control at 31 g/ha: 31 g ai/ha; for pest or weed control at 62 g/ha: 62 g ai/ha; for Plant response rating, Ryegrass, Italian: visual rating on scale 0 (no effect) to 100 (complete control), 13 to 15 d
Method in brief: as §1

soybean (Glycine max) = conditions: Preemergence; for plant injury at 62 g/ha: 62 g ai/ha; for Plant response rating, Soybean: visual rating on scale 0 (no effect) to 100 (complete control), 13 to 15 d
Method in brief: as §1

[7] = system: velvetleaf (Abutilon theophrasti); conditions: Preemergence; for pest or weed control at 62 g/ha: 62 g ai/ha; for Plant response rating, Velvetleaf: visual rating on scale 0 (no effect) to 100 (complete control), 13 to 15 d
Method in brief: as §1

[8] = system: waterhemp (common waterhemp, Amaranthus rudis); conditions: Preemergence; for Plant response rating, Waterhemp: visual rating on scale 0 (no effect) to 100 (complete control), 13 to 15 d; for Plant response rating: Waterhemp
Method in brief: as §1

[9] = system: lambsquarters (Chenopodium album); conditions: Preemergence
Method in brief: as §1

[10] = Alopecurus myosuroides, pre-emergence, Blackgrass, read-out: Plant response rating
[11] = Zea mays, pre-emergence, Corn, read-out: Plant response rating
[12] = Setaria faberi, pre-emergence, Foxtail, Giant, read-out: Plant response rating
[13] = pre-emergence, Galium, read-out: Plant response rating
[14] = Cyperus, pre-emergence, Nutsedge, Yellow, read-out: Plant response rating
[15] = Lolium multiflorum, pre-emergence, Ryegrass, Italian, read-out: Plant response rating
[16] = Glycine max, pre-emergence, Soybean, read-out: Plant response rating
[17] = Abutilon theophrasti, pre-emergence, Velvetleaf, read-out: Plant response rating

For `CCOc1cc(=O)n(-c2ccc(F)cc2)nc1C(O)c1ccnc(C(F)(F)F)c1` (stereo not drawn) [Compound 23, 5-ethoxy-2-(4-fluorophenyl)-6-[hydroxy[2-(trifluoromethyl)-4-pyridinyl]methyl]-3(2H)-pyridazinone], the pest or weed control at 31 g/ha [1, 10] was 50%, the pest or weed control at 62 g/ha [1, 10] was 5% and the “Plant response rating, Blackgrass” value ([1]; 8 g ai/ha) was 0. The “Plant response rating, Blackgrass” value ([1]; 16 g ai/ha) was 0, the “Plant response rating, Corn” value (corn (Zea mays); 8 g ai/ha) was 0 and the “Plant response rating, Corn” value (corn (Zea mays); 16 g ai/ha) was 5. The plant injury at 31 g/ha (corn (Zea mays); [11]) was 5%, the plant injury at 62 g/ha (corn (Zea mays); [11]) was 15% and the “Plant response rating, Foxtail, Giant” value ([2]; 8 g ai/ha) was 5. The “Plant response rating, Foxtail, Giant” value ([2]; 16 g ai/ha) was 55, the pest or weed control at 31 g/ha [2, 12] was 75% and the pest or weed control at 62 g/ha [2, 12] was 90%. The “Plant response rating, Galium” value ([3]; 8 g ai/ha) was 85, the “Plant response rating, Galium” value ([3]; 16 g ai/ha) was 85 and the pest or weed control at 31 g/ha [3, 13] was 90%. For the same compound, the pest or weed control at 62 g/ha [3, 13] was 95%, the Plant response rating ([4]; 31 g ai/ha) was 55 and the Plant response rating ([4]; 62 g ai/ha) was 98. For the same compound, the “Plant response rating, Morningglory” value ([4]; 8 g ai/ha) was 10, the “Plant response rating, Morningglory” value ([4]; 16 g ai/ha) was 20 and the pest or weed control at 31 g/ha [5, 14] was 0%. For the same compound, the pest or weed control at 62 g/ha [5, 14] was 0%, the “Plant response rating, Nutsedge, Yellow” value ([5]; 8 g ai/ha) was 0 and the “Plant response rating, Nutsedge, Yellow” value ([5]; 16 g ai/ha) was 0. For the same compound, the pest or weed control at 31 g/ha [6, 15] was 0%, the pest or weed control at 62 g/ha [6, 15] was 5% and the “Plant response rating, Ryegrass, Italian” value ([6]; 8 g ai/ha) was 0. The “Plant response rating, Ryegrass, Italian” value ([6]; 16 g ai/ha) was 0, the plant injury at 62 g/ha (soybean (Glycine max); [16]) was 25% and the “Plant response rating, Soybean” value (soybean (Glycine max); 8 g ai/ha) was 0. For the same compound, the “Plant response rating, Soybean” value (soybean (Glycine max); 16 g ai/ha) was 0, the pest or weed control at 62 g/ha [7, 17] was 100% and the “Plant response rating, Velvetleaf” value ([7]; 8 g ai/ha) was 0. The “Plant response rating, Velvetleaf” value ([7]; 16 g ai/ha) was 15, the “Plant response rating, Waterhemp” value ([8]; 8 g ai/ha) was 85 and the “Plant response rating, Waterhemp” value ([8]; 16 g ai/ha) was 100. For the same compound, the Plant response rating ([8]; 62 g ai/ha) was 100.
Compound `CCOc1cc(=O)n(-c2ccc(F)cc2)nc1Cc1ccnc(C(F)(F)F)c1` [Compound 25, 5-ethoxy-2-(4-fluorophenyl)-6-[[2-(trifluoromethyl)-4-pyridinyl]methyl]-3 (2H)-pyridazinone] has a pest or weed control at 31 g/ha [1, 10] of 40%, a pest or weed control at 62 g/ha [1, 10] of 85% and a pest or weed control at 125 g/ha ([1]; Alopecurus myosuroides, pre-emergence, Blackgrass, 125 g ai/ha, read-out: Plant response rating) of 90%. For the same compound, the pest or weed control at 250 g/ha ([1]; Alopecurus myosuroides, pre-emergence, Blackgrass, 250 g ai/ha, read-out: Plant response rating) was 90%, the plant injury at 31 g/ha (corn (Zea mays); [11]) was 10% and the plant injury at 62 g/ha (corn (Zea mays); [11]) was 30%. For the same compound, the plant injury at 125 g/ha (corn (Zea mays); Zea mays, pre-emergence, Corn, 125 g ai/ha, read-out: Plant response rating) was 35%, the plant injury at 250 g/ha (corn (Zea mays); Zea mays, pre-emergence, Corn, 250 g ai/ha, read-out: Plant response rating) was 45% and the pest or weed control at 31 g/ha [2, 12] was 100%. The pest or weed control at 62 g/ha [2, 12] was 100%, the pest or weed control at 125 g/ha ([2]; Setaria faberi, pre-emergence, Foxtail, Giant, 125 g ai/ha, read-out: Plant response rating) was 100% and the pest or weed control at 250 g/ha ([2]; Setaria faberi, pre-emergence, Foxtail, Giant, 250 g ai/ha, read-out: Plant response rating) was 100%. For the same compound, the pest or weed control at 31 g/ha [3, 13] was 85%, the pest or weed control at 62 g/ha [3, 13] was 90% and the pest or weed control at 125 g/ha ([3]; pre-emergence, Galium, 125 g ai/ha, read-out: Plant response rating) was 100%. The pest or weed control at 250 g/ha ([3]; pre-emergence, Galium, 250 g ai/ha, read-out: Plant response rating) was 100%, the Plant response rating ([9]; 31 g ai/ha) was 100 and the Plant response rating ([9]; 62 g ai/ha) was 100. The Plant response rating ([9]; 125 g ai/ha) was 100, the Plant response rating ([9]; 250 g ai/ha) was 100 and the Plant response rating ([4]; 31 g ai/ha) was 95. It also gave a Plant response rating ([4]; 62 g ai/ha) of 95, a Plant response rating ([4]; 125 g ai/ha) of 100 and a Plant response rating ([4]; 250 g ai/ha) of 98. The pest or weed control at 31 g/ha [5, 14] was 10%, the pest or weed control at 62 g/ha [5, 14] was 5% and the pest or weed control at 125 g/ha ([5]; Cyperus, pre-emergence, Nutsedge, Yellow, 125 g ai/ha, read-out: Plant response rating) was 15%. It also gave a pest or weed control at 250 g/ha ([5]; Cyperus, pre-emergence, Nutsedge, Yellow, 250 g ai/ha, read-out: Plant response rating) of 45%, a pest or weed control at 31 g/ha [6, 15] of 20% and a pest or weed control at 62 g/ha [6, 15] of 40%. The pest or weed control at 125 g/ha ([6]; Lolium multiflorum, pre-emergence, Ryegrass, Italian, 125 g ai/ha, read-out: Plant response rating) was 90%, the pest or weed control at 250 g/ha ([6]; Lolium multiflorum, pre-emergence, Ryegrass, Italian, 250 g ai/ha, read-out: Plant response rating) was 90% and the plant injury at 62 g/ha (soybean (Glycine max); [16]) was 20%. The plant injury at 125 g/ha (soybean (Glycine max); Glycine max, pre-emergence, Soybean, 125 g ai/ha, read-out: Plant response rating) was 35%, the plant injury at 250 g/ha (soybean (Glycine max); Glycine max, pre-emergence, Soybean, 250 g ai/ha, read-out: Plant response rating) was 65% and the pest or weed control at 62 g/ha [7, 17] was 100%. For the same compound, the pest or weed control at 125 g/ha ([7]; Abutilon theophrasti, pre-emergence, Velvetleaf, 125 g ai/ha, read-out: Plant response rating) was 70%, the pest or weed control at 250 g/ha ([7]; Abutilon theophrasti, pre-emergence, Velvetleaf, 250 g ai/ha, read-out: Plant response rating) was 95% and the Plant response rating ([8]; 62 g ai/ha) was 100. The Plant response rating ([8]; 125 g ai/ha) was 100 and the Plant response rating ([8]; 250 g ai/ha) was 100.

Reference: patent US10202361B2, “Pyridazinones as herbicides” (E I DU PONT DE NEMOURS AND COMPANY, priority 2014, dated 2019)
